The record followed here is PMC4222444, “Characterization of Plp, a phosphatidylcholine-specific phospholipase and hemolysin of Vibrio anguillarum” (BMC Microbiology, 2013).

The target in the test is rPlp (Plp) (Vibrio anguillarum, UniProt Q4ZHV5). Nature of the test: TLC with fluorescence scanning of BODIPY-lysophosphatidylcholine formation. It is filed as biochemical. To be noted: 20 uM substrate stock mixed 1:1 with enzyme; rPlp routinely 4 ug/ml; no divalent metal needed; labelled compound.
Sequence of rPlp (Plp) (Q4ZHV5 1-416 limits assumed): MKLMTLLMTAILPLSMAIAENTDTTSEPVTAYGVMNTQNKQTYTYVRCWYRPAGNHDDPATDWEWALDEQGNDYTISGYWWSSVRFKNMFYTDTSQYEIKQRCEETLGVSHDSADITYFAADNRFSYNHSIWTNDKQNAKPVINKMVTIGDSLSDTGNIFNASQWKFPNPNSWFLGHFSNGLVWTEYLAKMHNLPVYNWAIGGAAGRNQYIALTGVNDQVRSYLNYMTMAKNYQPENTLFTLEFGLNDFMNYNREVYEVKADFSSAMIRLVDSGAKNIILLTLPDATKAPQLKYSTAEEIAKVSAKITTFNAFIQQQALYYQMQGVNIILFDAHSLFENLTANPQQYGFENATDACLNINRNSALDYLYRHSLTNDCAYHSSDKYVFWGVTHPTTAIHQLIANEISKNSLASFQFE

`CCCCCCCCCC(=O)O[C@H](COCCCCCCCCCCCNC(=O)CCc1ccc2n1[B-](F)(F)[N+]1=C(C)C=C(C)C1=C2)COP(=O)([O-])OCC[N+](C)(C)C` [BPC, 2-decanoyl-1-(O-(11-(4,4-difluoro-5,7-dimethyl-4-bora-3a,4a-diaza-s-indacene-3-propionyl)amino)undecyl)-sn-glycero-3-phosphocholine]: the “TLC with fluorescence scanning of BODIPY-lysophosphatidylcholine formation” value was “rPlp exhibited high activity against phosphatidylcholine, cleaving BPC to yield BLPC and free fatty acid”.
